Literature values in patent US8211887B2, “Topical preparation and method for transdermal delivery and localization of therapeutic agents” (priority 2005, dated 2012).
Like-named read-outs stand apart in the source and are kept apart here.

[1] = local anesthetic, for levobupivacaine: locally

Structure (SMILES) | duration of action (local anesthetic) | onset of action (local anesthetic) | peak (local anesthetic) | duration of action (if used for epidural or peripheral nerve blocks or obstetrical anesthesia) | duration of action [1]
CCN(CC)CCOC(=O)c1ccc(N)cc1Cl [chloroprocaine] | 0.5 to 1 h | 6 to 12 min | 10 to 20 min |  | 
CCCCN1CCCC[C@H]1C(=O)Nc1c(C)cccc1C [levobupivacaine] |  | 2 to 10 min |  | 3 to 9 h | 2 to 4 h
Cc1cccc(C)c1NC(=O)C1CCCCN1C (stereo not drawn) [mepivacaine] | 0.75 to 1.5 h | 3 to 5 min | 15 to 45 min |  | 
CCN(CC)CCOC(=O)c1ccc(N)cc1 [procaine] |  | 5 to 10 min | less than 30 minutes |  | less than 2 hours
CCCN1CCCC[C@H]1C(=O)Nc1c(C)cccc1C [ropivacaine] |  | 1 to 15 min | 20 to 45 min |  | 2 to 6 h
